Data as given in PubChem BioAssay (NCI).
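Protocol summary: plate cells (96-well), add compound at 5 concentrations, incubate 48 h, interpolate endpoints linearly. The concentration for 50% growth inhibition is given as GI50. TGI denotes the concentration required for complete inhibition of growth.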

Tests used:
Assay in all cases: DTP human tumour cell line panel, 48 h
COLO 205 colon = system: COLO 205 colon
SK-MEL-28 melanoma = system: SK-MEL-28 melanoma
RXF 393 renal = system: RXF 393 renal
SK-OV-3 ovarian = system: SK-OV-3 ovarian
K-562 leukemia = system: K-562 leukemia
HCT-116 colon = system: HCT-116 colon
HT29 colon = system: HT29 colon
M14 melanoma = system: M14 melanoma
NCI-H522 lung = system: NCI-H522 lung
SF-268 CNS = system: SF-268 CNS
MDA-MB-435 = system: MDA-MB-435
CAKI-1 renal = system: CAKI-1 renal
A549 NSCLC = system: A549 NSCLC
UACC-62 melanoma = system: UACC-62 melanoma
EKVX NSCLC = system: EKVX NSCLC
T-47D breast = system: T-47D breast
OVCAR-8 ovarian = system: OVCAR-8 ovarian
SNB-75 CNS = system: SNB-75 CNS
BT-549 breast = system: BT-549 breast
KM12 colon = system: KM12 colon
HCC-2998 colon = system: HCC-2998 colon
MDA-MB-231 breast = system: MDA-MB-231 breast
SF-539 CNS = system: SF-539 CNS
ACHN renal = system: ACHN renal
786-0 renal = system: 786-0 renal
U251 CNS = system: U251 CNS
OVCAR-5 ovarian = system: OVCAR-5 ovarian
SK-MEL-5 melanoma = system: SK-MEL-5 melanoma
HOP-92 NSCLC = system: HOP-92 NSCLC
HCT-15 colon = system: HCT-15 colon
SK-MEL-2 melanoma = system: SK-MEL-2 melanoma
UACC-257 melanoma = system: UACC-257 melanoma
NCI-H460 lung = system: NCI-H460 lung
HL-60(TB) leukemia = system: HL-60(TB) leukemia
TK-10 renal = system: TK-10 renal
A498 renal = system: A498 renal
OVCAR-4 ovarian = system: OVCAR-4 ovarian
LOX IMVI melanoma = system: LOX IMVI melanoma
HOP-62 NSCLC = system: HOP-62 NSCLC
UO-31 renal = system: UO-31 renal
MCF7 breast = system: MCF7 breast
SNB-19 CNS = system: SNB-19 CNS
NCI/ADR-RES ovarian = system: NCI/ADR-RES ovarian
SF-295 CNS = system: SF-295 CNS
SW-620 colon = system: SW-620 colon
NCI-H226 lung = system: NCI-H226 lung
IGROV1 ovarian = system: IGROV1 ovarian
DU-145 prostate = system: DU-145 prostate
PC-3 prostate = system: PC-3 prostate
MOLT-4 leukemia = system: MOLT-4 leukemia
HS 578T breast = system: HS 578T breast

## Nc1nc(N)c2c(n1)NC(c1ccc(Cl)cc1)CC(c1ccc(Nc3nc(NCCO)nc(Nc4ccc(Cl)cc4)n3)cc1)=N2 (configuration not stated)
COLO 205 colon
  GI50: 1.51 µM
  TGI: 3.59 µM
SK-MEL-28 melanoma
  GI50: 1.73 µM
  TGI: 3.11 µM
RXF 393 renal
  GI50: 1.54 µM
  TGI: 2.97 µM
SK-OV-3 ovarian
  GI50: 14.8 µM
  TGI: 29.3 µM
K-562 leukemia
  GI50: 0.713 µM
  TGI: 3.2 µM
HCT-116 colon
  GI50: 1.4 µM
  TGI: 2.69 µM
HT29 colon
  GI50: 1.7 µM
  TGI: 3.68 µM
M14 melanoma
  GI50: 1.9 µM
  TGI: 4.39 µM
NCI-H522 lung
  GI50: 1.56 µM
  TGI: 3.16 µM
SF-268 CNS
  GI50: 4.14 µM
  TGI: 26.1 µM
MDA-MB-435
  GI50: 1.63 µM
  TGI: 3.18 µM
CAKI-1 renal
  GI50: 5.36 µM
  TGI: 28.2 µM
A549 NSCLC
  GI50: 4.12 µM
  TGI: > 100 µM
UACC-62 melanoma
  GI50: 2.03 µM
  TGI: 4.28 µM
EKVX NSCLC
  GI50: 2.01 µM
  TGI: 6.88 µM
T-47D breast
  GI50: 1.71 µM
  TGI: 6.51 µM
OVCAR-8 ovarian
  GI50: 1.57 µM
  TGI: 3.27 µM
SNB-75 CNS
  GI50: 1.59 µM
  TGI: 3.97 µM
BT-549 breast
  GI50: 2.25 µM
  TGI: 5.89 µM
KM12 colon
  GI50: 3.18 µM
  TGI: 10.3 µM
HCC-2998 colon
  GI50: 1.44 µM
  TGI: 2.78 µM
MDA-MB-231 breast
  GI50: 1.75 µM
  TGI: 3.92 µM
SF-539 CNS
  GI50: 1.68 µM
  TGI: 3.32 µM
ACHN renal
  GI50: 4.69 µM
  TGI: > 100 µM
786-0 renal
  GI50: 1.55 µM
  TGI: 3.04 µM
U251 CNS
  GI50: 1.47 µM
  TGI: 2.92 µM
OVCAR-5 ovarian
  GI50: 4.48 µM
  TGI: 19.8 µM
SK-MEL-5 melanoma
  GI50: 1.48 µM
  TGI: 2.8 µM
HOP-92 NSCLC
  GI50: 1.29 µM
  TGI: 3.12 µM
HCT-15 colon
  GI50: 1.29 µM
  TGI: 2.8 µM
SK-MEL-2 melanoma
  GI50: 1.45 µM
  TGI: 2.83 µM
UACC-257 melanoma
  GI50: 1.91 µM
  TGI: 3.74 µM
NCI-H460 lung
  GI50: 1.72 µM
  TGI: 3.32 µM
HL-60(TB) leukemia
  GI50: 1.15 µM
  TGI: 3.94 µM
TK-10 renal
  GI50: 10.6 µM
  TGI: 25.3 µM
A498 renal
  GI50: 5.9 µM
  TGI: 19.8 µM
OVCAR-4 ovarian
  GI50: 1.96 µM
  TGI: 5.04 µM
LOX IMVI melanoma
  GI50: 1.45 µM
  TGI: 2.86 µM
HOP-62 NSCLC
  GI50: 2.83 µM
  TGI: 10.9 µM
UO-31 renal
  GI50: 3.1 µM
  TGI: 15.3 µM
MCF7 breast
  GI50: 1.2 µM
  TGI: 2.57 µM
SNB-19 CNS
  GI50: 1.99 µM
  TGI: 5.81 µM
NCI/ADR-RES ovarian
  GI50: 4.24 µM
  TGI: > 100 µM
SF-295 CNS
  GI50: 1.73 µM
  TGI: 3.67 µM
SW-620 colon
  GI50: 1.62 µM
  TGI: 3.3 µM
NCI-H226 lung
  GI50: 6.47 µM
  TGI: 29.8 µM
IGROV1 ovarian
  GI50: 1.71 µM
  TGI: 3.58 µM
DU-145 prostate
  GI50: 2.22 µM
  TGI: 5.81 µM
PC-3 prostate
  GI50: 1.93 µM
  TGI: 7.55 µM
MOLT-4 leukemia
  GI50: 0.792 µM
  TGI: 3.92 µM
HS 578T breast
  GI50: 2.22 µM
  TGI: 5.01 µM
